“And” between values parts separate entries of the source, which are not always exact repeats. Identical values can stand only once. Like-named read-outs stand apart in the source and are kept apart here.
Assays:
σ2 receptor [1] = target: σ2 receptor; design: method as in PMID 22136765, PMID 21126878, PMID 21072511, PMID 19791807, PMID 21618432; conditions: cited from earlier work
σ1 receptor [2] = conditions: cited from earlier work
σ1 receptor [3] = experiment: σ1 receptor affinity (receptor binding); conditions: ratio Ki(σ2)/Ki(σ1)
[4] = metabolic stability with mouse liver microsomes and NADPH; conditions: LC-MS
Procedure: After an incubation period of 90 min, the amount of remaining test compound was determined by LC-MS [42, 43, 44].

[5] = pH 7.2; cited from earlier work
human serum albumin = human serum albumin (Homo sapiens, UniProt P02768); experiment: plasma protein binding by HPLC on human serum albumin stationary phase; format: in vitro ADME; conditions: stationary phase coated with human serum albumin
Sequence of human serum albumin (P02768 25-609): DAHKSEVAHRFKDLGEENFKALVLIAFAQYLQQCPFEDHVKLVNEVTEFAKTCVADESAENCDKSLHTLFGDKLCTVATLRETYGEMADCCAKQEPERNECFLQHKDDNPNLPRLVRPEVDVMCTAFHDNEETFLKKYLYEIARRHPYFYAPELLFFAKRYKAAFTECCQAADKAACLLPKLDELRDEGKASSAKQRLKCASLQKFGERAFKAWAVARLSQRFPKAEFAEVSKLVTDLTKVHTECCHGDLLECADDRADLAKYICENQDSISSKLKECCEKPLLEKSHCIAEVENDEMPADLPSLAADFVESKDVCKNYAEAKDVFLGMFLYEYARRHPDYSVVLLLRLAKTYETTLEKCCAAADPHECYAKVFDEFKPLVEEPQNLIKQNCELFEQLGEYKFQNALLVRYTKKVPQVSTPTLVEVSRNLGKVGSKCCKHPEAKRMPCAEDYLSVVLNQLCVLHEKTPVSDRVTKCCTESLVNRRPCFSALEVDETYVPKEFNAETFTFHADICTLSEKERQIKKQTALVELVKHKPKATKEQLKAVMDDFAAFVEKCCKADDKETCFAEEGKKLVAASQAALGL
Procedure: Plasma protein binding was recorded by HPLC analysis using a stationary phase coated with human serum albumin. The resulting retention times correlate with binding to human serum albumin [42].

[6] = logD7.4 by micro-shake flask method; format: physicochemical; conditions: n-octanol/MOPS buffer pH 7.4, determined by LC-MS
Procedure: The lipophilicity of the homologous fluoroalkyl derivatives 1–4 was determined by the micro-shake flask method. After the distribution of the compounds between an n-octanol layer and MOPS buffer (pH 7.4), the amount of the compound in the buffer layer was determined by mass spectrometry. The recorded logD7.4 values were compared with the logD7.2 values determined by the distribution of the analogous ^18F-labeled compounds [^18F]1–[^18F]4 between n-octanol and phosphate-buffered saline, pH 7.2. The logD7.2 values were calculated from the distribution of radioactivity in both layers.

dopamine D2/D3 receptors = conditions: healthy volunteers and HD patients; cited from earlier work
σ1 receptor [7] = conditions: healthy volunteers and HD patients, therapeutic doses; cited from earlier work
σ1 receptor [8] = conditions: rhesus monkey, 1-tissue compartment model, baseline conditions, N = 1; cited from earlier work
[9] = rhesus monkey, in vivo; cited from earlier work
σ1 receptor [10] = conditions: cited from earlier work; for VT: healthy volunteers
σ1 receptor [11] = conditions: cited from earlier work; for SUV120min p.i. as % of SUV5min p.i.: piglet brain; for SUV120min p.i. as % of SUV5min p.i. / whole-brain distribution volume VT: baseline; for VT, cerebellum / VT, colliculi / VT, cortex / VT, hippocampus / VT, midbrain / VT, striatum / VT, thalamus: piglet, Logan plot, baseline conditions, N = 3; for whole-brain distribution volume VT / decrease in VT upon SA 4503 blockade of σ1 receptors / standardized uptake value (SUV) in brain: piglets; for whole-brain distribution volume VT: two-tissue compartment modeling, metabolite-corrected plasma input; for decrease in VT upon SA 4503 blockade of σ1 receptors: whole brain, Logan plot analysis; for standardized uptake value (SUV) in brain: within 3 min after injection
σ2 receptor [12] = conditions: in Figure 5; cited from earlier work
σ1 receptor [13] = conditions: in Figure 5; cited from earlier work
σ1 receptor [14] = conditions: cited from earlier work; for uptake in the brain: i.v., female CD1-mice
[15] = cited from earlier work
[16] = racemic spirocyclic piperidines, read-out: Ki(σ1)
[17] = pure fluspidine enantiomers, read-out: Ki, σ1 receptor affinity

Structure (SMILES): FCCC1OC2(CCN(Cc3ccc(F)cc3)CC2)c2ccccc21 (stereo not drawn) [compound 5]
- Ki (σ2 receptor [1]): 0.481 µM
- Ki (σ1 receptor [2]; [16]): 0.57 nM
- σ1/σ2 Selectivity (σ1 receptor [3]): 844

Structure (SMILES): CC(C)=CCN1CCC2(CC1)OC(CCF)c1ccccc12 (stereo not drawn) [compound 10]
- Ki (σ2 receptor [1]; cells printed in µM): > 1 µM
- Ki (σ1 receptor [2]; [16]): 1.5 nM

Structure (SMILES): FCCCC1OC2(CCN(Cc3ccccc3)CC2)c2ccccc21 (stereo not drawn) [compound 3]
- Ki (σ2 receptor [1]): 0.837 µM
- In Vitro Metabolism—Intact Compd. after 90 min [4]: 33% and 33 ± 7.9%
- logD7.2 PET Tracer [5]: 2.78 ± 0.06
- Ki (σ1 receptor [2]; [16]): 1.4 nM
- σ1/σ2 Selectivity (σ1 receptor [3]): 598
- fraction unbound (human serum albumin): 0.09
- logD [6]: 3.6 ± 0.12

Structure (SMILES): FCC[C@@H]1OC2(CCN(Cc3ccccc3)CC2)c2ccccc21 [(S)-2]
- Ki (σ1 receptor [2]; [17]): 2.3 nM

Structure (SMILES): CC(c1ccccc1)N1CCC2(CC1)OC(CCF)c1ccccc12 (stereo not drawn) [compound 7]
- Ki (σ2 receptor [1]; cells printed in µM): > 1 µM
- Ki (σ1 receptor [2]; [16]): 1 nM
- σ1/σ2 Selectivity (σ1 receptor [3]): >1000

Structure (SMILES): CCCN1CCC(c2cccc(S(C)(=O)=O)c2)CC1 [pridopidine, 4-[3-(methylsulfonyl)phenyl]-1-propylpiperidine]
- occupancy of dopamine D2/D3 receptors (dopamine D2/D3 receptors): minimal occupancy
- binding to the σ1 receptor in the brain (occupancy study) (σ1 receptor [7]): selective binding

Structure (SMILES): [18F]CC[C@@H]1OC2(CCN(Cc3ccccc3)CC2)c2ccccc21 [(S)-[^18F]2]
- VT, amygdala (σ1 receptor [8]): 14.6 mL/g
- VT, caudate (σ1 receptor [8]): 13.5 mL/g
- VT, cerebellum (σ1 receptor [8]): 13.6 mL/g
- VT, cortex (σ1 receptor [8]): 14.6 to 19.6 mL/g
- VT, hippocampus (σ1 receptor [8]): 16.4 mL/g
- VT, putamen (σ1 receptor [8]): 14.9 mL/g
- VT, thalamus (σ1 receptor [8]): 12.2 mL/g
- fraction of unchanged PET tracer in plasma [9]: > 30%
- VT (σ1 receptor [10]; frontal cortex): 21 mL/g
- VT (σ1 receptor [10]; striatum): 19 mL/g
- free fraction in blood plasma fp (σ1 receptor [10]; human): 0.023
- SUV120min p.i. as % of SUV5min p.i. (σ1 receptor [11]): ~ 50%
- VT, cerebellum (σ1 receptor [11]): 14.8 mL/g
- VT, colliculi (σ1 receptor [11]): 15.2 mL/g
- VT, cortex (σ1 receptor [11]): 9.8 to 13.1 mL/g
- VT, hippocampus (σ1 receptor [11]): 13.5 mL/g
- VT, midbrain (σ1 receptor [11]): 15.4 mL/g
- VT, striatum (σ1 receptor [11]): 13.5 mL/g
- VT, thalamus (σ1 receptor [11]): 14.1 mL/g
- whole-brain distribution volume VT (σ1 receptor [11]): 13 mL/g
- decrease in VT upon SA 4503 blockade of σ1 receptors (σ1 receptor [11]): −55%
- standardized uptake value (SUV) in brain (σ1 receptor [11]): about 2

Structure (SMILES): COc1ccc(CCN2CCN(CCCc3ccccc3)CC2)cc1OC [cutamesine, 1-[2-(3,4-dimethoxyphenyl)ethyl]-4-(3-phenylpropyl)piperazine]
- IC50 (σ2 receptor [12]): 63.1 nM
- IC50 (σ1 receptor [13]): 4.6 nM

Structure (SMILES): FCCC1OC2(CCN(Cc3ccccc3)CC2)c2ccccc21 (racemic) [rac-[^18F]2]
- uptake in the brain (σ1 receptor [14]; 5 min p.i.): 3.88 % ID/g
- uptake in the brain (σ1 receptor [14]; 30 min p.i.): 4.71 % ID/g
- uptake in the brain (σ1 receptor [14]; 120 min p.i.): 2.82 % ID/g
- Ratio of activity concentration, cerebellum vs. olfactory bulb (σ1 receptor [14]; mouse, 45 min p.i., N = 1): 1.75
- Ratio of activity concentration, cortex vs. olfactory bulb (σ1 receptor [14]; mouse, 45 min p.i., N = 1): 1.45
- Ratio of activity concentration, facial nucleus vs. olfactory bulb (σ1 receptor [14]; mouse, 45 min p.i., N = 1): 4.69
- Ratio of activity concentration, hippocampus vs. olfactory bulb (σ1 receptor [14]; mouse, 45 min p.i., N = 1): 1.21
- Ratio of activity concentration, striatum vs. olfactory bulb (σ1 receptor [14]; mouse, 45 min p.i., N = 1): 1.11
- Ratio of activity concentration, superficial grey layer of superior colliculus vs. olfactory bulb (σ1 receptor [14]; mouse, 45 min p.i., N = 1): 1.57
- Ratio of activity concentration, thalamus vs. olfactory bulb (σ1 receptor [14]; mouse, 45 min p.i., N = 1): 1.24
- activity in brain due to unchanged radioligand ([15]; brains of CD-1 mice, 60 min after intravenous administration): 98%
- proportion of unchanged PET tracer in plasma ([15]; mouse, in vivo, iv): 75%

Structure (SMILES): COc1cc(CCN2CCN(CCCc3ccccc3)CC2)ccc1OCC[18F] [[^18F]FE-SA 4503]
- IC50 (σ2 receptor [12]): 2.1 nM
- IC50 (σ1 receptor [13]): 6.5 nM

Structure (SMILES): FCCC1OC2(CCN(Cc3ccccc3)CC2)c2ccccc21 (stereo not drawn) [compound 2]
- Ki (σ2 receptor [1]): 0.785 µM
- In Vitro Metabolism—Intact Compd. after 90 min [4]: 34% and 34 ± 8.8%
- logD7.2 PET Tracer [5]: 2.57 ± 0.32
- Ki (σ1 receptor [2]; [16]): 0.59 nM
- σ1/σ2 Selectivity (σ1 receptor [3]): 1331
- fraction unbound (human serum albumin): 0.12
- logD [6]: 3.33 ± 0.07

Structure (SMILES): FCC[C@H]1OC2(CCN(Cc3ccccc3)CC2)c2ccccc21 [(R)-2]
- Ki (σ1 receptor [2]; [17]): 0.57 nM

Structure (SMILES): COc1cc(CCN2CCN(CCCc3ccccc3)CC2)ccc1OC[18F] [[^18F]FM-SA 4503]
- Ki (σ2 receptor [12]): 250 nM
- Ki (σ1 receptor [13]): 6.4 nM

Structure (SMILES): FCC1OC2(CCN(Cc3ccccc3)CC2)c2ccccc21 (stereo not drawn) [compound 1]
- Ki (σ2 receptor [1]): 0.55 µM
- In Vitro Metabolism—Intact Compd. after 90 min [4]: 53% and 53 ± 3.9%
- logD7.2 PET Tracer [5]: 2.39 ± 0.04
- Ki (σ1 receptor [2]; [16]): 0.74 nM
- σ1/σ2 Selectivity (σ1 receptor [3]): 743
- fraction unbound (human serum albumin): 0.16
- logD [6]: 2.8 ± 0.04

Structure (SMILES): CCCCN1CCC2(CC1)OC(CCF)c1ccccc12 (stereo not drawn) [compound 8]
- Ki (σ2 receptor [1]): 0.878 µM
- Ki (σ1 receptor [2]; [16]): 3.9 nM
- σ1/σ2 Selectivity (σ1 receptor [3]): 225

Structure (SMILES): FCCC1OC2(CCN(CC3CCCCC3)CC2)c2ccccc21 (stereo not drawn) [compound 6]
- Ki (σ2 receptor [1]): 0.057 µM
- Ki (σ1 receptor [2]; [16]): 0.71 nM
- σ1/σ2 Selectivity (σ1 receptor [3]): 80

Structure (SMILES): [18F]CC[C@H]1OC2(CCN(Cc3ccccc3)CC2)c2ccccc21 [(R)-[^18F]2]
- VT, amygdala (σ1 receptor [8]): 153 mL/g
- VT, caudate (σ1 receptor [8]): 181 mL/g
- VT, cerebellum (σ1 receptor [8]): 175 mL/g
- VT, cortex (σ1 receptor [8]): 174 to 291 mL/g
- VT, hippocampus (σ1 receptor [8]): 193 mL/g
- VT, putamen (σ1 receptor [8]): 199 mL/g
- VT, thalamus (σ1 receptor [8]): 128 mL/g
- fraction of unchanged PET tracer in plasma [9]: > 30%
- SUV120min p.i. as % of SUV5min p.i. (σ1 receptor [11]): ~ 80%
- VT, cerebellum (σ1 receptor [11]): 140 mL/g
- VT, colliculi (σ1 receptor [11]): 123 mL/g
- VT, cortex (σ1 receptor [11]): 67.8 to 98.4 mL/g
- VT, hippocampus (σ1 receptor [11]): 95.2 mL/g
- VT, midbrain (σ1 receptor [11]): 132 mL/g
- VT, striatum (σ1 receptor [11]): 100 mL/g
- VT, thalamus (σ1 receptor [11]): 106 mL/g
- whole-brain distribution volume VT (σ1 receptor [11]): 133 mL/g
- decrease in VT upon SA 4503 blockade of σ1 receptors (σ1 receptor [11]): −89%
- standardized uptake value (SUV) in brain (σ1 receptor [11]): about 2

Structure (SMILES): FCCCCC1OC2(CCN(Cc3ccccc3)CC2)c2ccccc21 (stereo not drawn) [compound 4]
- Ki (σ2 receptor [1]): 0.489 µM
- In Vitro Metabolism—Intact Compd. after 90 min [4]: 28% and 28 ± 4.5%
- logD7.2 PET Tracer [5]: 3.11 ± 0.14
- Ki (σ1 receptor [2]; [16]): 1.2 nM
- σ1/σ2 Selectivity (σ1 receptor [3]): 408
- fraction unbound (human serum albumin): 0.05
- logD [6]: 3.71 ± 0.14

Structure (SMILES): CCCCCCCCN1CCC2(CC1)OC(CCF)c1ccccc12 (stereo not drawn) [compound 9]
- Ki (σ2 receptor [1]): 0.118 µM
- Ki (σ1 receptor [2]; [16]): 15 nM
- σ1/σ2 Selectivity (σ1 receptor [3]): 7.9
